Test results: ChEMBL document CHEMBL4325881, “Facile synthesis of 2-aryl 5-hydroxy benzo[d]oxazoles and their in vitro anti-proliferative effects on various cancer cell lines” (Bioorg Med Chem Lett, 2018)
The source made the active and inactive calls. The rule behind the calls is not given here.

Tests used:
A549 = experiment: Cytotoxicity against human A549 cells assessed as reduction in cell viability after 48 hrs by MTT assay; assay type: functional, cell-based; conditions: A549, 48 h
[1] = Cytotoxicity against human […] cells assessed as reduction in cell viability after 48 hrs by MTT assay; assay type: functional, cell-based
MDA-MB-231 = experiment: Cytotoxicity against human MDA-MB-231 cells assessed as reduction in cell viability after 48 hrs by MTT assay; assay type: functional, cell-based; conditions: MDA-MB-231, 48 h
HeLa = experiment: Cytotoxicity against human HeLa cells assessed as reduction in cell viability after 48 hrs by MTT assay; assay type: functional, cell-based
HepG2 [2] = experiment: Cytotoxicity against human HepG2 cells assessed as reduction in cell viability after 48 hrs by MTT assay; assay type: functional, cell-based; conditions: HepG2, 48 h
HaCaT = experiment: Cytotoxicity against human HaCaT cells assessed as reduction in cell viability after 48 hrs by MTT assay; assay type: cell-based
HepG2 [3] = experiment: Induction of apoptosis in human HepG2 cells after 48 hrs by annexin V-FITC/propidium iodide staining-based flow cytometry analysis; assay type: functional, cell-based
HepG2 [4] = experiment: Induction of apoptosis in human HepG2 cells assessed as early apoptotic cells at 0.5 uM after 48 hrs by annexin V-FITC/propidium iodide staining-based flow cytometry analysis (reference value: 0.98%); assay type: functional
HepG2 [5] = experiment: Induction of apoptosis in human HepG2 cells assessed as late apoptotic cells at 0.5 uM after 48 hrs by annexin V-FITC/propidium iodide staining-based flow cytometry analysis (reference value: 0.26%); assay type: functional
HepG2 [6] = experiment: Induction of apoptosis in human HepG2 cells assessed as necrotic cells at 0.5 uM after 48 hrs by annexin V-FITC/propidium iodide staining-based flow cytometry analysis (reference value: 0.62%); assay type: functional
HepG2 [7] = experiment: Induction of apoptosis in human HepG2 cells assessed as early apoptotic cells at 1 uM after 48 hrs by annexin V-FITC/propidium iodide staining-based flow cytometry analysis (reference value: 0.98%); assay type: functional
HepG2 [8] = experiment: Induction of apoptosis in human HepG2 cells assessed as late apoptotic cells at 1 uM after 48 hrs by annexin V-FITC/propidium iodide staining-based flow cytometry analysis (reference value: 0.26%); assay type: functional
HepG2 [9] = experiment: Induction of apoptosis in human HepG2 cells assessed as necrotic cells at 1 uM after 48 hrs by annexin V-FITC/propidium iodide staining-based flow cytometry analysis (reference value: 0.62%); assay type: functional
HepG2 [10] = experiment: Induction of apoptosis in human HepG2 cells assessed as viable cells at 1 uM after 48 hrs by annexin V-FITC/propidium iodide staining-based flow cytometry analysis (reference value: 98.14%); assay type: functional; conditions: HepG2, 48 h, read-out: Activity
HepG2 [11] = experiment: Induction of apoptosis in human HepG2 cells assessed as necrotic cells at 2.5 uM after 48 hrs by annexin V-FITC/propidium iodide staining-based flow cytometry analysis (reference value: 0.62%); assay type: functional
HepG2 [12] = experiment: Induction of apoptosis in human HepG2 cells assessed as viable cells at 2.5 uM after 48 hrs by annexin V-FITC/propidium iodide staining-based flow cytometry analysis (reference value: 98.14%); assay type: functional; conditions: HepG2, 48 h, read-out: Activity
HepG2 [13] = experiment: Induction of apoptosis in human HepG2 cells assessed as cell shrinkage at 0.5 to 2.5 uM after 48 hrs by inverted phase contrast microscopic analysis; assay type: functional, cell-based
HepG2 [14] = experiment: Induction of apoptosis in human HepG2 cells assessed as […] deformation at 0.5 to 2.5 uM after 48 hrs by inverted phase contrast microscopic analysis; assay type: functional, cell-based
HepG2 [15] = experiment: Induction of apoptosis in human HepG2 cells assessed as chromatin condensation after 48 hrs by acridine orange/ethidium bromide staining-based fluorescence microscopic analysis; assay type: functional, cell-based
HepG2 [16] = experiment: Induction of apoptosis in human HepG2 cells assessed as apoptotic body formation after 48 hrs by acridine orange/ethidium bromide staining-based fluorescence microscopic analysis; assay type: functional, cell-based
HepG2 [17] = experiment: Induction of apoptosis in human HepG2 cells assessed as horse-shoe shaped nuclei at 0.5 to 2.5 uM after 48 hrs by DAPI staining-based fluorescence microscopic analysis; assay type: functional, cell-based
HepG2 [18] = experiment: Induction of apoptosis in human HepG2 cells assessed as fragmented nuclei at 0.5 to 2.5 uM after 48 hrs by DAPI staining-based fluorescence microscopic analysis; assay type: functional, cell-based
HepG2 [19] = experiment: Cell cycle arrest in human HepG2 cells assessed as accumulation at sub-G1 phase at 0.5 uM after 24 hrs by propidium iodide staining based flow cytometric analysis (reference value: 1.73%); assay type: functional
HepG2 [20] = experiment: Cell cycle arrest in human HepG2 cells assessed as accumulation at G0/G1 phase at 0.5 uM after 24 hrs by propidium iodide staining based flow cytometric analysis (reference value: 49.93%); assay type: functional
HepG2 [21] = experiment: Cell cycle arrest in human HepG2 cells assessed as accumulation at S phase at 0.5 uM after 24 hrs by propidium iodide staining based flow cytometric analysis (reference value: 7.57%); assay type: functional
HepG2 [22] = experiment: Cell cycle arrest in human HepG2 cells assessed as accumulation at sub-G1 phase at 1 uM after 24 hrs by propidium iodide staining based flow cytometric analysis (reference value: 1.73%); assay type: functional
HepG2 [23] = experiment: Cell cycle arrest in human HepG2 cells assessed as accumulation at G0/G1 phase at 1 uM after 24 hrs by propidium iodide staining based flow cytometric analysis (reference value: 49.93%); assay type: functional
HepG2 [24] = experiment: Cell cycle arrest in human HepG2 cells assessed as accumulation at S phase at 1 uM after 24 hrs by propidium iodide staining based flow cytometric analysis (reference value: 7.57%); assay type: functional
HepG2 [25] = experiment: Cell cycle arrest in human HepG2 cells assessed as accumulation at G0/G1 phase at 2.5 uM after 24 hrs by propidium iodide staining based flow cytometric analysis (reference value: 49.93%); assay type: functional
HepG2 [26] = experiment: Cell cycle arrest in human HepG2 cells assessed as accumulation at S phase at 2.5 uM after 24 hrs by propidium iodide staining based flow cytometric analysis (reference value: 7.57%); assay type: functional
HepG2 [27] = experiment: Cell cycle arrest in human HepG2 cells assessed as accumulation at G2/M phase at 2.5 uM after 24 hrs by propidium iodide staining based flow cytometric analysis (reference value: 28.79%); assay type: functional
HepG2 [28] = experiment: Induction of apoptosis in human HepG2 cells assessed as mitochondrial polarized cells level at 0.5 uM after 48 hrs by JC-1 staining based flow cytometric method (reference value: 93.02%); assay type: functional
HepG2 [29] = experiment: Induction of apoptosis in human HepG2 cells assessed as mitochondrial depolarized cells level at 0.5 uM after 48 hrs by JC-1 staining based flow cytometric method (reference value: […]); assay type: functional
HepG2 [30] = experiment: Induction of apoptosis in human HepG2 cells assessed as mitochondrial depolarized cells level at 1 uM after 48 hrs by JC-1 staining based flow cytometric method (reference value: […]); assay type: functional
HepG2 [31] = experiment: Induction of apoptosis in human HepG2 cells assessed as mitochondrial polarized cells level at 2.5 uM after 48 hrs by JC-1 staining based flow cytometric method (reference value: 93.02%); assay type: functional
HepG2 [32] = experiment: Induction of apoptosis in human HepG2 cells assessed as mitochondrial depolarized cells level at 2.5 uM after 48 hrs by JC-1 staining based flow cytometric method (reference value: […]); assay type: functional
HepG2 [33] = experiment: Induction of apoptosis in human HepG2 cells assessed as increase in loss of mitochondrial membrane potential after 48 hrs by JC-1 staining based flow cytometric method; assay type: functional, cell-based

For O=Cc1c(O)ccc2oc(-c3cccc(Cl)c3)nc12, the IC50 (A549) was 1.87 µM, the IC50 [1] was 0.98 µM and the IC50 (MDA-MB-231) was 1.33 µM. The IC50 (HeLa) was 2.18 µM, the IC50 (HepG2 [2]) was 0.81 µM and the IC50 (HaCaT) was 17.8 µM. For the same molecule, the Activity (HepG2 [3]) was “Dose-dependent effect”, the Activity (HepG2 [4]) was 12.5% and the Activity (HepG2 [5]) was 0.75%. It also gave an Activity (HepG2 [6]) of 2.42%, an Activity (HepG2 [7]) of 34.2% and an Activity (HepG2 [8]) of 0.55%. For the same molecule, the Activity (HepG2 [9]) was 1.84%, the viability at 1 µM (HepG2 [10]) was 63.4% and the Activity (HepG2 [11]) was 2.01%. The viability at 2.5 µM (HepG2 [12]) was 40.2%, the Activity (HepG2 [13]) was “Active” and the Activity (HepG2 [14]) was “Active”. For the same molecule, the Activity (HepG2 [15]) was “Dose-dependent effect”, the Activity (HepG2 [16]) was “Dose-dependent effect” and the Activity (HepG2 [17]) was “Active”. The Activity (HepG2 [18]) was “Active”, the Activity (HepG2 [19]) was 2.42% and the Activity (HepG2 [20]) was 59.01%. It also gave an Activity (HepG2 [21]) of 6.61%, an Activity (HepG2 [22]) of 5.64% and an Activity (HepG2 [23]) of 50.36%. The Activity (HepG2 [24]) was 5.53%, the Activity (HepG2 [25]) was 45.52% and the Activity (HepG2 [26]) was 8.32%. The Activity (HepG2 [27]) was 22.57%, the Activity (HepG2 [28]) was 85.46% and the Activity (HepG2 [29]) was 14.91%. The Activity (HepG2 [30]) was 25.87%, the Activity (HepG2 [31]) was 29.19% and the Activity (HepG2 [32]) was 71.49%. The Activity (HepG2 [33]) was “Dose-dependent effect”.
